# ChEMBL document CHEMBL3885861, “Open TG-GATES”
# Species on record: Rattus norvegicus
# Assay: Open TG-GATES - Regimen: Daily Repeat
# Type: toxicity, organism-based, Sprague-Dawley
# Parameters: regimen Daily Repeat, gender Male, age 6 weeks
# Details: in vivo, po, 45 mg/kg, route gavage, dose level High; for APTT / Bas / Eos / Fbg / Hb / Ht / Lym / MCH / MCHC / MCV / Mono / Neu / PT / Plat / RBC / Ret / WBC: tissue Blood; for KIDNEY_L / KIDNEY_R / KIDNEY_TOTAL: tissue Kidney; for LIVER: tissue Liver; for A/G / ALP / ALT / AST / BUN / CRE / Ca / Cl / DBIL / GLC / IP / K / LDH / Na / PL / RALB / TBIL / TC / TG / TP / gamma-GTP: tissue Plasma
structure (smiles),measurement,setting,value
CC(=N)S [THIOACETAMIDE],TERMINAL_BW,"72 h, time 3 day",211.8 g
same,APTT,"72 h, time 3 day",17.5 s
same,Bas,"72 h, time 3 day",0%
same,Eos,"72 h, time 3 day",1.4%
same,Fbg,"72 h, time 3 day",296 mg/dL
same,Hb,"72 h, time 3 day",14.4 g/dL
same,Ht,"72 h, time 3 day",44%
same,Lym,"72 h, time 3 day",75.4%
same,MCH,"72 h, time 3 day",20.3 pg
same,MCHC,"72 h, time 3 day",32.8%
same,MCV,"72 h, time 3 day",62.1 fL
same,Mono,"72 h, time 3 day",9.2%
same,Neu,"72 h, time 3 day",14%
same,PT,"72 h, time 3 day",12.4 s
same,Plat,"72 h, time 3 day",112.5 x10_4/uL
same,RBC,"72 h, time 3 day",711.2 x10_4/ul
same,Ret,"72 h, time 3 day",4.8%
same,WBC,"72 h, time 3 day",144.4 x10_2/uL
same,KIDNEY_L,"72 h, time 3 day",1 g
same,KIDNEY_R,"72 h, time 3 day",1.1 g
same,KIDNEY_TOTAL,"72 h, time 3 day",2.1 g
same,LIVER,"72 h, time 3 day",12.3 g
same,A/G,"72 h, time 3 day",1.8
same,ALP,"72 h, time 3 day",923.2 IU/L
same,ALT,"72 h, time 3 day",47.8 IU/L
same,AST,"72 h, time 3 day",179.6 IU/L
same,BUN,"72 h, time 3 day",16.4 mg/dL
same,CRE,"72 h, time 3 day",0.6 mg/dL
same,Ca,"72 h, time 3 day",10.9 mg/dL
same,Cl,"72 h, time 3 day",104.2 meq/L
same,DBIL,"72 h, time 3 day",0.086 mg/dL
same,GLC,"72 h, time 3 day",174.8 mg/dL
same,IP,"72 h, time 3 day",8.1 mg/dL
same,K,"72 h, time 3 day",5.1 meq/L
same,LDH,"72 h, time 3 day",338.2 IU/L
same,Na,"72 h, time 3 day",136 meq/L
same,PL,"72 h, time 3 day",189.8 mg/dL
same,RALB,"72 h, time 3 day",3.7 g/dL
same,TBIL,"72 h, time 3 day",0.3 mg/dL
same,TC,"72 h, time 3 day",102 mg/dL
same,TG,"72 h, time 3 day",115.4 mg/dL
same,TP,"72 h, time 3 day",5.8 g/dL
same,gamma-GTP,"72 h, time 3 day",2.2 IU/L
same,TERMINAL_BW,"[…], time 7 day",217.5 g
same,TERMINAL_BW,"[…], time 14 day",249.4 g
same,TERMINAL_BW,"[…], time 28 day",277.2 g
same,APTT,"[…], time 7 day",16.5 s
same,Bas,"[…], time 7 day",0%
same,Eos,"[…], time 7 day",1%
same,Fbg,"[…], time 7 day",236 mg/dL
same,Hb,"[…], time 7 day",14.7 g/dL
same,Ht,"[…], time 7 day",44%
same,Lym,"[…], time 7 day",81%
same,MCH,"[…], time 7 day",20.1 pg
same,MCHC,"[…], time 7 day",33.5%
same,MCV,"[…], time 7 day",60 fL
same,Mono,"[…], time 7 day",5.6%
same,Neu,"[…], time 7 day",12.6%
same,PT,"[…], time 7 day",14.3 s
same,Plat,"[…], time 7 day",159.2 x10_4/uL
same,RBC,"[…], time 7 day",734.2 x10_4/ul
same,Ret,"[…], time 7 day",2%
same,WBC,"[…], time 7 day",180.4 x10_2/uL
same,APTT,"[…], time 14 day",16.7 s
same,Bas,"[…], time 14 day",0%
same,Eos,"[…], time 14 day",1%
same,Fbg,"[…], time 14 day",228.4 mg/dL
same,Hb,"[…], time 14 day",14.7 g/dL
same,Ht,"[…], time 14 day",43.7%
same,Lym,"[…], time 14 day",77.8%
same,MCH,"[…], time 14 day",19.7 pg
same,MCHC,"[…], time 14 day",33.5%
same,MCV,"[…], time 14 day",58.9 fL
same,Mono,"[…], time 14 day",5.4%
same,Neu,"[…], time 14 day",16.2%
same,PT,"[…], time 14 day",14.4 s
same,Plat,"[…], time 14 day",123.1 x10_4/uL
same,RBC,"[…], time 14 day",742.6 x10_4/ul
same,Ret,"[…], time 14 day",2.7%
same,WBC,"[…], time 14 day",176.2 x10_2/uL
same,APTT,"[…], time 28 day",17.6 s
same,Bas,"[…], time 28 day",0%
same,Eos,"[…], time 28 day",0.6%
same,Fbg,"[…], time 28 day",218 mg/dL
same,Hb,"[…], time 28 day",15.6 g/dL
same,Ht,"[…], time 28 day",45.4%
same,Lym,"[…], time 28 day",71.6%
same,MCH,"[…], time 28 day",18.8 pg
same,MCHC,"[…], time 28 day",34.5%
same,MCV,"[…], time 28 day",54.3 fL
same,Mono,"[…], time 28 day",6.6%
same,Neu,"[…], time 28 day",21%
same,PT,"[…], time 28 day",14 s
same,Plat,"[…], time 28 day",110.9 x10_4/uL
same,RBC,"[…], time 28 day",835.6 x10_4/ul
same,Ret,"[…], time 28 day",2.6%
same,WBC,"[…], time 28 day",183.8 x10_2/uL
same,KIDNEY_L,"[…], time 7 day",1 g
same,KIDNEY_R,"[…], time 7 day",1 g
same,KIDNEY_TOTAL,"[…], time 7 day",2 g
same,KIDNEY_L,"[…], time 14 day",1.2 g
same,KIDNEY_R,"[…], time 14 day",1.2 g
same,KIDNEY_TOTAL,"[…], time 14 day",2.3 g
same,KIDNEY_L,"[…], time 28 day",1.2 g
same,KIDNEY_R,"[…], time 28 day",1.2 g
same,KIDNEY_TOTAL,"[…], time 28 day",2.4 g
same,LIVER,"[…], time 7 day",11.1 g
same,LIVER,"[…], time 14 day",12.4 g
same,LIVER,"[…], time 28 day",14.3 g
same,A/G,"[…], time 7 day",1.9
same,ALP,"[…], time 7 day",946.4 IU/L
same,ALT,"[…], time 7 day",23.4 IU/L
same,AST,"[…], time 7 day",47 IU/L
same,BUN,"[…], time 7 day",18.4 mg/dL
same,CRE,"[…], time 7 day",0.5 mg/dL
same,Ca,"[…], time 7 day",10.4 mg/dL
same,Cl,"[…], time 7 day",105.4 meq/L
same,DBIL,"[…], time 7 day",0.026 mg/dL
same,GLC,"[…], time 7 day",164.2 mg/dL
same,IP,"[…], time 7 day",7.3 mg/dL
same,K,"[…], time 7 day",4.8 meq/L
same,LDH,"[…], time 7 day",192.8 IU/L
same,Na,"[…], time 7 day",136 meq/L
same,PL,"[…], time 7 day",137 mg/dL
same,RALB,"[…], time 7 day",3.6 g/dL
same,TBIL,"[…], time 7 day",0.2 mg/dL
same,TC,"[…], time 7 day",69.8 mg/dL
same,TG,"[…], time 7 day",57.2 mg/dL
same,TP,"[…], time 7 day",5.5 g/dL
same,gamma-GTP,"[…], time 7 day",2 IU/L
same,A/G,"[…], time 14 day",2.3
same,ALP,"[…], time 14 day",1052 IU/L
same,ALT,"[…], time 14 day",26 IU/L
same,AST,"[…], time 14 day",67 IU/L
same,BUN,"[…], time 14 day",18.6 mg/dL
same,CRE,"[…], time 14 day",0.6 mg/dL
same,Ca,"[…], time 14 day",10.2 mg/dL
same,Cl,"[…], time 14 day",105 meq/L
same,DBIL,"[…], time 14 day",0.08 mg/dL
same,GLC,"[…], time 14 day",165.8 mg/dL
same,IP,"[…], time 14 day",7.3 mg/dL
same,K,"[…], time 14 day",4.3 meq/L
same,LDH,"[…], time 14 day",161 IU/L
same,Na,"[…], time 14 day",135 meq/L
same,PL,"[…], time 14 day",154 mg/dL
same,RALB,"[…], time 14 day",3.7 g/dL
same,TBIL,"[…], time 14 day",0.3 mg/dL
same,TC,"[…], time 14 day",74.4 mg/dL
same,TG,"[…], time 14 day",83 mg/dL
same,TP,"[…], time 14 day",5.3 g/dL
same,gamma-GTP,"[…], time 14 day",2.4 IU/L
same,A/G,"[…], time 28 day",1.9
same,ALP,"[…], time 28 day",1032 IU/L
same,ALT,"[…], time 28 day",31.2 IU/L
same,AST,"[…], time 28 day",76 IU/L
same,BUN,"[…], time 28 day",20.8 mg/dL
same,CRE,"[…], time 28 day",0.6 mg/dL
same,Ca,"[…], time 28 day",9.9 mg/dL
same,Cl,"[…], time 28 day",106 meq/L
same,DBIL,"[…], time 28 day",0.2 mg/dL
same,GLC,"[…], time 28 day",148.8 mg/dL
same,IP,"[…], time 28 day",6.3 mg/dL
same,K,"[…], time 28 day",4.4 meq/L
same,LDH,"[…], time 28 day",195.4 IU/L
same,Na,"[…], time 28 day",134 meq/L
same,PL,"[…], time 28 day",138.4 mg/dL
same,RALB,"[…], time 28 day",3.5 g/dL
same,TBIL,"[…], time 28 day",0.3 mg/dL
same,TC,"[…], time 28 day",61.4 mg/dL
same,TG,"[…], time 28 day",20.8 mg/dL
same,TP,"[…], time 28 day",5.4 g/dL
same,gamma-GTP,"[…], time 28 day",6 IU/L
